# Measured values from patent US12090140B2, “Non-sedating dexmedetomidine treatment regimens” (priority 2023, dated 2024).
# Where two headings read alike, the source gives them in different places.
# Key:
# pregnant rabbits = settings: rabbit; intravenous up to 96 mcg/kg/day, GD 6 to 18; cited from earlier work
# mouse lymphoma cell = settings: mammalian mouse lymphoma cell forward mutation assay; cited from earlier work
# pregnant rats = settings: rat, cited from earlier work
# [1] = test system: bone marrow of CD-1 and NMRI mice; settings: cited from earlier work
# cytochrome P450 = settings: human liver microsomes; cited from earlier work
# [2] = cited from earlier work
# [3] = test system: pregnant rats and offspring; settings: rat, cited from earlier work
# [4] = cited from earlier work; remark: listed apart in the source
# [5] = test system: bacterial reverse mutation; settings: in vitro Ames bacterial reverse mutation test; cited from earlier work
# human lymphocyte = settings: cited from earlier work
# male or female rats = settings: daily subcutaneous injections up to 54 mcg/kg; cited from earlier work
# plasma proteins = settings: cited from earlier work
# [6] = test system: agitation in subjects suffering from schizophrenia
# [7] = human, in vivo, iv
# Excerpt: Mean infusion rate is 0.36 mcg/kg/hr with the maximum rate ranging from about 0.2 mcg/kg/hr to about 0.6 mcg/kg/hr (see FIGS. 18 to 20).
# [8] = test system: adult patients and healthy adult subjects; settings: loading IV bolus of undiluted drug, 19.4 mcg/kg; one patient; cited from earlier work
# [9] = radiolabeled, intravenous, after nine days
smiles,measurement,setting,value
"Cc1cccc([C@H](C)c2cnc[nH]2)c1C [Dexmedetomidine, (+) 4-(S)-[1-(2,3-dimethylphenyl)ethyl]-1H-imidazole]",Malformation or embryo-fetal toxicity,pregnant rabbits,No malformation or embryo-fetal toxicity
same,Mutagenicity,mouse lymphoma cell,not mutagenic
same,Malformations,pregnant rats; any dose level,No malformations
same,Embryo-fetal findings,pregnant rats; subcutaneous 20 mcg/kg/day,No embryo-fetal toxicity
same,Embryo-fetal findings,"pregnant rats; subcutaneous 200 mcg/kg/day, GD 5 to 16, with maternal toxicity",Increased post-implantation losses and reduced live pups
same,Clastogenicity,[1]; CD-1 mice,not clastogenic
same,Clastogenicity,[1]; NMRI mice,some evidence for clastogenicity
same,Cytochrome P450 mediated drug interactions,cytochrome P450,no evidence of cytochrome P450 mediated drug interactions
same,Placental transfer,[2]; available data in humans,crosses the placenta
same,Presence in human milk,"[2]; following intravenous administration, published literature",presence of dexmedetomidine in human milk
same,Developmental findings when first generation offspring were mated,[3]; 32 mcg/kg/day,Decreased viability of second generation offspring and an increase in early implantation loss along with delayed motor development
same,Developmental findings,"[3]; subcutaneous 8 mcg/kg/day, GD 16 to PND 25",Reduced pup and adult offspring weights and grip strength
same,"Pharmacokinetics (Cmax, Tmax, AUC, t½, CL, and V) in renal impairment versus normal renal function",[4]; creatinine clearance <30 mL/minute,not significantly different
same,Extent of biotransformation,[4]; direct glucuronidation and cytochrome P450 (primarily CYP2A6),almost complete biotransformation
same,Clearance,[4]; intravenous administration,approximately 39 L/h
same,Steady-state volume of distribution (Vss),[4]; intravenous administration,approximately 118 liters
same,Radioactivity recovered in the feces,[4]; [9],4%
same,Radioactivity recovered in the urine,[4]; [9],95%
same,"Aliphatic hydroxylation products, share of the dose in urine","[4]; radiolabeled, intravenous",approximately 14%
same,"N-methylation products, share of the dose in urine","[4]; radiolabeled, intravenous",approximately 18%
same,"Products of N-glucuronidation, share of cumulative urinary excretion","[4]; radiolabeled, intravenous",approximately 34%
same,Share of urinary radioactivity excreted within 24 hours after the infusion,"[4]; radiolabeled, intravenous",Approximately 85%
same,Unchanged drug in the urine,"[4]; radiolabeled, intravenous",No unchanged dexmedetomidine was detected
same,Urinary metabolites not identified,"[4]; radiolabeled, intravenous",Approximately 28%
same,"Clearance in hepatic impairment (Child-Pugh Class A, B, or C)",[4]; versus normal hepatic function,decreased
same,Mutagenicity,[5],not mutagenic
same,Clastogenicity,human lymphocyte; absence or presence of human liver S9 metabolic activation,not clastogenic
same,Clastogenicity,human lymphocyte; presence of rat liver S9 metabolic activation,weak clastogenic response
same,Fertility,male or female rats,not affected
same,Fraction bound to plasma proteins in hepatic impairment versus healthy subjects,plasma proteins,significantly decreased
same,Average protein binding,plasma proteins; plasma of healthy male and female subjects,94%
same,PEC value,"[6]; Patient 1 (treatment arm), 0 min after infusion start",9
same,PEC value,"[6]; Patient 1 (treatment arm), 15 min after infusion start",5
same,PEC value,"[6]; Patient 2 (treatment arm), 0 min after infusion start",16
same,PEC value,"[6]; Patient 2 (treatment arm), 15 min after infusion start",13
same,PEC value,"[6]; Patient 2 (treatment arm), 30 min after infusion start",12
same,PEC value,"[6]; Patient 2 (treatment arm), 45 min after infusion start",11
same,PEC value,"[6]; Patient 2 (treatment arm), 60 min after infusion start",9
same,PEC value,"[6]; Patient 2 (treatment arm), 75 min after infusion start",7
same,PEC value,"[6]; Patient 3 (treatment arm), 0 min after infusion start",12
same,PEC value,"[6]; Patient 3 (treatment arm), 15 min after infusion start",12
same,PEC value,"[6]; Patient 3 (treatment arm), 30 min after infusion start",10
same,PEC value,"[6]; Patient 3 (treatment arm), 45 min after infusion start",7
same,PEC value,"[6]; Patient 3 (treatment arm), 60 min after infusion start",6
same,PEC value,"[6]; Patient 4 (treatment arm), 0 min after infusion start",9
same,PEC value,"[6]; Patient 4 (treatment arm), 15 min after infusion start",9
same,PEC value,"[6]; Patient 4 (treatment arm), 30 min after infusion start",8
same,PEC value,"[6]; Patient 4 (treatment arm), 45 min after infusion start",8
same,PEC value,"[6]; Patient 4 (treatment arm), 60 min after infusion start",7
same,PEC value,"[6]; Patient 4 (treatment arm), 75 min after infusion start",7
same,PEC value,"[6]; Patient 4 (treatment arm), 90 min after infusion start",7
same,PEC value,"[6]; Patient 4 (treatment arm), 120 min after infusion start",7
same,PEC value,"[6]; Patient 4 (treatment arm), […] after infusion start",7
same,PEC value,"[6]; Patient 11 (treatment arm), 0 min after infusion start",13
same,PEC value,"[6]; Patient 11 (treatment arm), 15 min after infusion start",13
same,PEC value,"[6]; Patient 11 (treatment arm), 30 min after infusion start",11
same,PEC value,"[6]; Patient 11 (treatment arm), 45 min after infusion start",9
same,PEC value,"[6]; Patient 11 (treatment arm), 60 min after infusion start",9
same,PEC value,"[6]; Patient 11 (treatment arm), 75 min after infusion start",7
same,PEC value,"[6]; Patient 12 (treatment arm), 0 min after infusion start",13
same,PEC value,"[6]; Patient 12 (treatment arm), 15 min after infusion start",13
same,PEC value,"[6]; Patient 12 (treatment arm), 30 min after infusion start",13
same,PEC value,"[6]; Patient 12 (treatment arm), 45 min after infusion start",10
same,PEC value,"[6]; Patient 12 (treatment arm), 60 min after infusion start",10
same,PEC value,"[6]; Patient 12 (treatment arm), 75 min after infusion start",8
same,PEC value,"[6]; Patient 12 (treatment arm), 90 min after infusion start",6
same,PEC value,"[6]; Patient 12 (treatment arm), […] after infusion start",5
same,PEC value,"[6]; Patient 14 (treatment arm), 0 min after infusion start",10
same,PEC value,"[6]; Patient 14 (treatment arm), 15 min after infusion start",9
same,PEC value,"[6]; Patient 14 (treatment arm), 30 min after infusion start",6
same,PEC value,"[6]; Patient 14 (treatment arm), 45 min after infusion start",6
same,PEC value,"[6]; Patient 14 (treatment arm), 60 min after infusion start",5
same,PEC value,"[6]; Patient 14 (treatment arm), 75 min after infusion start",5
same,PEC value,"[6]; Patient 16 (treatment arm), 0 min after infusion start",10
same,PEC value,"[6]; Patient 16 (treatment arm), 15 min after infusion start",9
same,PEC value,"[6]; Patient 16 (treatment arm), 30 min after infusion start",6
same,PEC value,"[6]; Patient 16 (treatment arm), 45 min after infusion start",6
same,PEC value,"[6]; Patient 16 (treatment arm), 60 min after infusion start",7
same,PEC value,"[6]; Patient 16 (treatment arm), 75 min after infusion start",5
same,PEC value,"[6]; Patient 17 (treatment arm), 0 min after infusion start",10
same,PEC value,"[6]; Patient 17 (treatment arm), 15 min after infusion start",8
same,PEC value,"[6]; Patient 17 (treatment arm), 30 min after infusion start",7
same,PEC value,"[6]; Patient 17 (treatment arm), 45 min after infusion start",5
same,Time to reach Cmax,[7],15 to 105 min
same,Effects of overdose,[8],cardiac arrest
